The first data set deals with T1, Thyrotropin receptor (Homo sapiens, UniProt P16473). Put plainly: Agonist activity at TSHR (unknown origin).
T1 sequence (P16473 whole entry): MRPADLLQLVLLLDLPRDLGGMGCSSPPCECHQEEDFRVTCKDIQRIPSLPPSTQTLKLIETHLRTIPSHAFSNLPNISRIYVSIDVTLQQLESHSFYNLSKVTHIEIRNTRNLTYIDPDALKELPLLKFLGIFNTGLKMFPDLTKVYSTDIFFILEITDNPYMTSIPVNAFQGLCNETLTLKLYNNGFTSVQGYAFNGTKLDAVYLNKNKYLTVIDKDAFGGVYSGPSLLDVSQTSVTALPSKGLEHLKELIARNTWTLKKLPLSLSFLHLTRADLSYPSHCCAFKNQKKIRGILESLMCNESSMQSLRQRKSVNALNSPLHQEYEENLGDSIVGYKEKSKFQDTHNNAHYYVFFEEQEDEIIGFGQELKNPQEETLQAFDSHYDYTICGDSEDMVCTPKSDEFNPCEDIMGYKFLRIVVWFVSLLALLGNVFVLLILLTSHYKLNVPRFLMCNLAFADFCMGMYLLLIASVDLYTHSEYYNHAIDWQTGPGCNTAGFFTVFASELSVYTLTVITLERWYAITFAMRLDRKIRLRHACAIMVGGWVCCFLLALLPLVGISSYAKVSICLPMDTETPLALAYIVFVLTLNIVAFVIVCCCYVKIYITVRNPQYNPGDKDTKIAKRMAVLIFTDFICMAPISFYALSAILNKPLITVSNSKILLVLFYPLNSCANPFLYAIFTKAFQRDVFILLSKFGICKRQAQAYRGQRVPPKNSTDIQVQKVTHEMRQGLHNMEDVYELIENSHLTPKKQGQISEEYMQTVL
Conditions: not given
Lutropin-choriogonadotropic hormone receptor, sequence (P22888 whole entry): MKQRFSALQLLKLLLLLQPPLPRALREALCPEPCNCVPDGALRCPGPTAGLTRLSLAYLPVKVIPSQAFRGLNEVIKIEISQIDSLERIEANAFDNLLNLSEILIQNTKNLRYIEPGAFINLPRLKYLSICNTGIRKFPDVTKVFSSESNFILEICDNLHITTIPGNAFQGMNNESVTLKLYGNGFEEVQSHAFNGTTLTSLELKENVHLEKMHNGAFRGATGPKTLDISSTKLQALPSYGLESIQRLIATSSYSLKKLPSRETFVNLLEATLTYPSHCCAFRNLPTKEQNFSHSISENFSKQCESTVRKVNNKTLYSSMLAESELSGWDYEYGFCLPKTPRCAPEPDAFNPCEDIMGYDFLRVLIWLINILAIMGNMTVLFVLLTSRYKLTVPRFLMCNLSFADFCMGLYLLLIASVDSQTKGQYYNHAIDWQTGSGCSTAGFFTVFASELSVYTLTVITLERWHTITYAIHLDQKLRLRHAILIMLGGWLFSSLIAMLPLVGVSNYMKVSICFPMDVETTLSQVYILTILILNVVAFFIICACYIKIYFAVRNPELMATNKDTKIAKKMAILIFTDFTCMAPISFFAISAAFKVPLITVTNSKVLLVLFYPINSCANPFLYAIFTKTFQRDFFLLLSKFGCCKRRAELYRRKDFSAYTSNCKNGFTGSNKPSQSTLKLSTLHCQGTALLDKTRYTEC
`COc1cccc(-c2nc(SC)nc3sc(C(=O)NC(C)(C)C)c(N)c23)c1` displayed an EC50 of 7.7 µM.

In another data set the target is T1, Thyrotropin receptor. Put plainly: Agonist activity at TSHR (unknown origin) transiently transfected HEK-EM293 cells assessed as cAMP level after 1 hr by ELISA. Format: functional, cell-based.
Conditions: not given
A general note: Changes in cAMP serve as a functional read-out for many G protein-coupled receptors.
Take `COc1ccc(-c2nc3ccccc3c(=O)n2Cc2ccccc2)cc1COc1ccc(NC(C)=O)cc1`: the EC50 is 0.96 µM.

`COc1ccc(OCc2cc(C3Nc4ccccc4C(=O)N3Cc3ccccc3)ccc2OC)cc1` (configuration not stated): the EC50 turned out to be 2.16 µM.

On to `COc1ccc(C2Nc3ccccc3C(=O)N2Cc2ccccc2)cc1COc1ccccc1` (configuration not stated), for which the EC50 is 2.57 µM. Consider `COc1ccc(C2Nc3ccccc3C(=O)N2CCc2ccccc2)cc1COc1ccc(NC(C)=O)cc1` (configuration not stated), for which the EC50 turned out to be 0.43 µM. Still for that read-out and setting: to `COc1ccc(C2Nc3ccccc3C(=O)N2Cc2ccco2)cc1COc1ccc(NC(C)=O)cc1` (configuration not stated) belongs 1.16 µM; to `COc1ccc(C2Nc3cccc(O)c3C(=O)N2Cc2ccccc2)cc1COc1ccc(NC(C)=O)cc1` (configuration not stated), 0.09 µM. On the same count and under the same terms, to `COc1ccc(-c2nc3cccc(O)c3c(=O)n2Cc2ccccc2)cc1COc1ccc(NC(C)=O)cc1` belongs 0.55 µM; to `CC(=O)Nc1ccc(OCc2cccc(C3Nc4ccccc4C(=O)N3Cc3ccccc3)c2)cc1` (configuration not stated), 1.86 µM; to `COc1ccc(C2Nc3ccccc3C(=O)N2Cc2ccccc2)cc1COc1ccc(NC(C)=O)cc1` (configuration not stated), 0.29 µM.

On to `COc1ccc(C2Nc3ccc(O)cc3C(=O)N2Cc2ccccc2)cc1COc1ccc(NC(C)=O)cc1` (configuration not stated), for which the EC50 turned out to be 0.33 µM.

Consider `COc1ccc(C2Nc3ccccc3C(=O)N2Cc2ccccc2)cc1CSc1ccc(NC(C)=O)cc1` (configuration not stated), for which the EC50 turned out to be 0.08 µM. Regarding `COc1ccc(C2Nc3cccc(OC)c3C(=O)N2Cc2ccccc2)cc1COc1ccc(NC(C)=O)cc1` (configuration not stated), the EC50 turned out to be 4.48 µM. Same read-out and setting: to `COc1ccc(C2Nc3cccc(O)c3C(=O)N2Cc2ccccc2)cc1CSc1ccc(NC(C)=O)cc1` (configuration not stated) belongs 0.018 µM; to `COc1ccc(C2Nc3ccccc3C(=O)N2Cc2ccncc2)cc1COc1ccc(NC(C)=O)cc1` (configuration not stated), 3.98 µM. Same read-out and setting: to `COc1ccc(C2Nc3cccc(F)c3C(=O)N2Cc2ccccc2)cc1COc1ccc(NC(C)=O)cc1` (configuration not stated) belongs 0.28 µM.

As to `COc1ccc(-c2nc3ccccc3c(=O)n2Cc2ccco2)cc1COc1ccc(NC(C)=O)cc1`, the EC50 worked out at 0.93 µM. Same read-out and setting: with `COc1ccc(C2Nc3ccccc3C(=O)N2c2ccccc2)cc1COc1ccc(NC(C)=O)cc1` (configuration not stated) the figure was 5.09 µM; with `CCCCN1C(=O)c2ccccc2NC1c1ccc(OC)c(COc2ccc(NC(C)=O)cc2)c1` (configuration not stated), 0.83 µM. The same measure, in the same setting: to `COc1ccc(C2Nc3ccccc3C(=O)N2Cc2ccccc2)cc1COc1cccc(NC(C)=O)c1` (configuration not stated) belongs 4.34 µM.

Test system in a further data set: not listed separately
Put plainly: Half life in acidic aqueous conditions at pH 2. Format: physicochemical. Particulars: acidic aqueous solution.
As for `COc1ccc(C2Nc3cccc(O)c3C(=O)N2Cc2ccccc2)cc1COc1ccc(NC(C)=O)cc1` (configuration not stated), the half-life was 3 h.

The next data set addresses Lutropin-choriogonadotropic hormone receptor (Homo sapiens, UniProt P22888). Put plainly: Agonist activity at LHCGR (unknown origin).
Conditions: not given
The molecule `COc1cccc(-c2nc(SC)nc3sc(C(=O)NC(C)(C)C)c(N)c23)c1` had an EC50 of 0.22 µM.

The EC50 is the concentration that produces a half-maximal response. What is called half-life is the time needed for the level to fall by half in the phase considered.

Source of the values: ChEMBL document CHEMBL3217527, “The Synthesis and Evaluation of Dihydroquinazolin-4-ones and Quinazolin-4-ones as Thyroid Stimulating Hormone Receptor Agonists” (Medchemcomm, 2011).
